Assay results: the supplement of paper PMC10307832

Legend:
Experiment in all cases: relative viability (nuclei count vs DMSO), 5 days (fraction); higher = more cells survive
LCLC-103H = system: LCLC-103H
How it was run: (§1)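 Medians of duplicate plates are given as relative viability. That measure is the nuclei count in treated wells divided by the count in vehicle wells. Counts were taken on 4× images of lung cancer cell lines in 1536-well plates, 5 days after pin-tool dosing the day after seeding with one drug alone or a fixed anchor-drug dose plus five library-drug doses (not always all listed) in √10 steps.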

LXF-289 = system: LXF-289
How it was run: as §1

NCI-H1355 = system: NCI-H1355
How it was run: as §1

NCI-H1563 = system: NCI-H1563
How it was run: as §1

NCI-H1651 = system: NCI-H1651
How it was run: as §1

NCI-H1755 = system: NCI-H1755
How it was run: as §1

NCI-H1792 = system: NCI-H1792
How it was run: as §1

NCI-H1915 = system: NCI-H1915
How it was run: as §1

NCI-H2347 = system: NCI-H2347
How it was run: as §1

NCI-H3122 = system: NCI-H3122
How it was run: as §1

NCI-H322M = system: NCI-H322M
How it was run: as §1

NCI-H441 = system: NCI-H441
How it was run: as §1

NCI-H460 = system: NCI-H460
How it was run: as §1

NCI-H520 = system: NCI-H520
How it was run: as §1

NCI-H522 = system: NCI-H522
How it was run: as §1

NCI-H596 = system: NCI-H596
How it was run: as §1

NCI-H661 = system: NCI-H661
How it was run: as §1

NCI-H727 = system: NCI-H727
How it was run: as §1

PC-14 = system: PC-14
How it was run: as §1

RERF-LC-KJ = system: RERF-LC-KJ
How it was run: as §1

SK-MES-1 = system: SK-MES-1
How it was run: as §1

SW 900 = system: SW 900
How it was run: as §1

`O=c1cc(N2CCOCC2)oc2c(-c3cccc4c3sc3ccccc34)cccc12` + Cc1nc(Nc2ncc(C(=O)Nc3c(C)cccc3Cl)s2)cc(N2CCN(CCO)CC2)n1 [Dasatinib] (partner 0.075 µM) was tested, and the relative viability (LCLC-103H; first compound 0.01 µM) was 0.491, the relative viability (LCLC-103H; first compound 0.03162 µM) was 0.412 and the relative viability (LCLC-103H; first compound 0.1 µM) was 0.539. The relative viability (LCLC-103H; first compound 0.3162 µM) was 0.449, the relative viability (LCLC-103H; first compound 1 µM) was 0.401 and the relative viability (LXF-289; first compound 0.01 µM) was 0.239. It also gave a relative viability (LXF-289; first compound 0.03162 µM) of 0.223, a relative viability (LXF-289; first compound 0.1 µM) of 0.187 and a relative viability (LXF-289; first compound 0.3162 µM) of 0.213. It also gave a relative viability (LXF-289; first compound 1 µM) of 0.247, a relative viability (NCI-H1355; first compound 0.01 µM) of 0.789 and a relative viability (NCI-H1355; first compound 0.03162 µM) of 0.692. The relative viability (NCI-H1355; first compound 0.1 µM) was 0.695, the relative viability (NCI-H1355; first compound 0.3162 µM) was 0.731 and the relative viability (NCI-H1355; first compound 1 µM) was 0.682. The relative viability (NCI-H1563; first compound 0.01 µM) was 0.445, the relative viability (NCI-H1563; first compound 0.03162 µM) was 0.451 and the relative viability (NCI-H1563; first compound 0.1 µM) was 0.445. For the same molecule, the relative viability (NCI-H1563; first compound 0.3162 µM) was 0.51, the relative viability (NCI-H1563; first compound 1 µM) was 0.412 and the relative viability (NCI-H1651; first compound 0.01 µM) was 0.421. For the same molecule, the relative viability (NCI-H1651; first compound 0.03162 µM) was 0.414, the relative viability (NCI-H1651; first compound 0.1 µM) was 0.395 and the relative viability (NCI-H1651; first compound 0.3162 µM) was 0.338. The relative viability (NCI-H1651; first compound 1 µM) was 0.519, the relative viability (NCI-H1755; first compound 0.01 µM) was 0.511 and the relative viability (NCI-H1755; first compound 0.03162 µM) was 0.412. It also gave a relative viability (NCI-H1755; first compound 0.1 µM) of 0.471, a relative viability (NCI-H1755; first compound 0.3162 µM) of 0.416 and a relative viability (NCI-H1755; first compound 1 µM) of 0.415. It also gave a relative viability (NCI-H1792; first compound 0.01 µM) of 0.857, a relative viability (NCI-H1792; first compound 0.03162 µM) of 0.663 and a relative viability (NCI-H1792; first compound 0.1 µM) of 0.856. It also gave a relative viability (NCI-H1792; first compound 0.3162 µM) of 0.996, a relative viability (NCI-H1792; first compound 1 µM) of 0.788 and a relative viability (NCI-H1915; first compound 0.01 µM) of 0.33. The relative viability (NCI-H1915; first compound 0.03162 µM) was 0.334, the relative viability (NCI-H1915; first compound 0.1 µM) was 0.314 and the relative viability (NCI-H1915; first compound 0.3162 µM) was 0.321. It also gave a relative viability (NCI-H1915; first compound 1 µM) of 0.316, a relative viability (NCI-H2347; first compound 0.01 µM) of 0.316 and a relative viability (NCI-H2347; first compound 0.03162 µM) of 0.284. The relative viability (NCI-H2347; first compound 0.1 µM) was 0.265, the relative viability (NCI-H2347; first compound 0.3162 µM) was 0.315 and the relative viability (NCI-H2347; first compound 1 µM) was 0.283. It also gave a relative viability (NCI-H3122; first compound 0.01 µM) of 0.667, a relative viability (NCI-H3122; first compound 0.03162 µM) of 0.836 and a relative viability (NCI-H3122; first compound 0.1 µM) of 0.753. For the same molecule, the relative viability (NCI-H3122; first compound 0.3162 µM) was 0.764, the relative viability (NCI-H3122; first compound 1 µM) was 0.751 and the relative viability (NCI-H322M; first compound 0.01 µM) was 0.231. For the same molecule, the relative viability (NCI-H322M; first compound 0.03162 µM) was 0.255, the relative viability (NCI-H322M; first compound 0.1 µM) was 0.292 and the relative viability (NCI-H322M; first compound 0.3162 µM) was 0.252. For the same molecule, the relative viability (NCI-H322M; first compound 1 µM) was 0.224, the relative viability (NCI-H441; first compound 0.01 µM) was 0.623 and the relative viability (NCI-H441; first compound 0.03162 µM) was 0.676. For the same molecule, the relative viability (NCI-H441; first compound 0.1 µM) was 0.594, the relative viability (NCI-H441; first compound 0.3162 µM) was 0.492 and the relative viability (NCI-H441; first compound 1 µM) was 0.574. It also gave a relative viability (NCI-H460; first compound 0.01 µM) of 0.558, a relative viability (NCI-H460; first compound 0.03162 µM) of 0.54 and a relative viability (NCI-H460; first compound 0.1 µM) of 0.516. For the same molecule, the relative viability (NCI-H460; first compound 0.3162 µM) was 0.512, the relative viability (NCI-H460; first compound 1 µM) was 0.452 and the relative viability (NCI-H520; first compound 0.01 µM) was 0.184. It also gave a relative viability (NCI-H520; first compound 0.03162 µM) of 0.201, a relative viability (NCI-H520; first compound 0.1 µM) of 0.231 and a relative viability (NCI-H520; first compound 0.3162 µM) of 0.168. It also gave a relative viability (NCI-H520; first compound 1 µM) of 0.203, a relative viability (NCI-H522; first compound 0.01 µM) of 1.01 and a relative viability (NCI-H522; first compound 0.03162 µM) of 0.915. It also gave a relative viability (NCI-H522; first compound 0.1 µM) of 0.797, a relative viability (NCI-H522; first compound 0.3162 µM) of 0.859 and a relative viability (NCI-H522; first compound 1 µM) of 0.745. For the same molecule, the relative viability (NCI-H596; first compound 0.01 µM) was 0.711, the relative viability (NCI-H596; first compound 0.03162 µM) was 0.574 and the relative viability (NCI-H596; first compound 0.1 µM) was 0.561. It also gave a relative viability (NCI-H596; first compound 0.3162 µM) of 0.558, a relative viability (NCI-H596; first compound 1 µM) of 0.648 and a relative viability (NCI-H661; first compound 0.01 µM) of 0.764. It also gave a relative viability (NCI-H661; first compound 0.03162 µM) of 0.869, a relative viability (NCI-H661; first compound 0.1 µM) of 0.889 and a relative viability (NCI-H661; first compound 0.3162 µM) of 0.993. It also gave a relative viability (NCI-H661; first compound 1 µM) of 0.842, a relative viability (NCI-H727; first compound 0.01 µM) of 0.466 and a relative viability (NCI-H727; first compound 0.03162 µM) of 0.292. It also gave a relative viability (NCI-H727; first compound 0.1 µM) of 0.456, a relative viability (NCI-H727; first compound 0.3162 µM) of 0.367 and a relative viability (NCI-H727; first compound 1 µM) of 0.38. It also gave a relative viability (PC-14; first compound 0.01 µM) of 0.237, a relative viability (PC-14; first compound 0.03162 µM) of 0.267 and a relative viability (PC-14; first compound 0.1 µM) of 0.276. For the same molecule, the relative viability (PC-14; first compound 0.3162 µM) was 0.257, the relative viability (PC-14; first compound 1 µM) was 0.237 and the relative viability (RERF-LC-KJ; first compound 0.01 µM) was 0.85. For the same molecule, the relative viability (RERF-LC-KJ; first compound 0.03162 µM) was 0.918, the relative viability (RERF-LC-KJ; first compound 0.1 µM) was 0.934 and the relative viability (RERF-LC-KJ; first compound 0.3162 µM) was 0.769. For the same molecule, the relative viability (RERF-LC-KJ; first compound 1 µM) was 0.818, the relative viability (SK-MES-1; first compound 0.01 µM) was 0.413 and the relative viability (SK-MES-1; first compound 0.03162 µM) was 0.363. It also gave a relative viability (SK-MES-1; first compound 0.1 µM) of 0.349, a relative viability (SK-MES-1; first compound 0.3162 µM) of 0.447 and a relative viability (SK-MES-1; first compound 1 µM) of 0.337. The relative viability (SW 900; first compound 0.01 µM) was 0.476, the relative viability (SW 900; first compound 0.03162 µM) was 0.648 and the relative viability (SW 900; first compound 0.1 µM) was 0.66. It also gave a relative viability (SW 900; first compound 0.3162 µM) of 0.539 and a relative viability (SW 900; first compound 1 µM) of 0.507.
